This is an account of results in patent US4359583A, “Antibiotics TM-531 B and TM-531 C” (Taisho Pharmaceutical Co., Ltd., priority 1980, dated 1982).

SMILES strings stand for the structures. “Also recorded” adds a separate entry of the source.

Data set [1] in a line: Improving the feed efficiency when incorporated into feeds. As to conditions: incorporated into feeds for poultry, hogs, etc. The format is in vivo.
The test system of data set [2] is plant pathogenic microorganisms. Kind of data set: Physiological properties: growth inhibition. It counts as cell-based. The following applies: in words.
The subject of another data set is Bacillus licheniformis. Kind of data set: MIC, antibacterial activity on heart infusion agar. The following applies: inoculum 10^6 CFU/ml. It counts as cell-based. The method, then: (§1) Using heart infusion agar as a medium the MIC (minimum inhibition concentration) of Antibiotics TM-531 B and TM-531 C against various bacteria were measured using an inoculum size of 10^6 CFU/ml, to determine its antibacterial activity.

Data set [3] deals with Pseudomonas aeruginosa IID 1052. Kind of data set: MIC, antibacterial activity on heart infusion agar. The format is cell-based. As to conditions: inoculum 10^6 CFU/ml. The procedure:
as §1

For data set [4], the system named is Staphylococcus aureus TPR-23. Kind of data set: MIC, antibacterial activity on heart infusion agar. It counts as cell-based. The following applies: inoculum 10^6 CFU/ml. The procedure: as §1
The test system of data set [5] is Staphylococcus epidermidis IID 866. Kind of data set: MIC, antibacterial activity on heart infusion agar. The format is cell-based. As to conditions: inoculum 10^6 CFU/ml. The procedure: as §1
In data set [6] the test system is Streptococcus faecalis ATCC 8043. Kind of data set: MIC, antibacterial activity on heart infusion agar. It counts as cell-based. The following applies: inoculum 10^6 CFU/ml. The procedure:
as §1

Data set [7] concerns Staphylococcus epidermidis TPR-25. Kind of data set: MIC, antibacterial activity on heart infusion agar. The format is cell-based. As to conditions: inoculum 10^6 CFU/ml. The method, then: as §1
In data set [8] the test system is Staphylococcus aureus FDA 209P. Kind of data set: MIC, antibacterial activity on heart infusion agar. The format is cell-based. The following applies: inoculum 10^6 CFU/ml. The procedure:
as §1

In data set [9] the test system is Staphylococcus aureus Smith. Kind of data set: MIC, antibacterial activity on heart infusion agar. The format is cell-based. The following applies: inoculum 10^6 CFU/ml. The procedure: as §1
Data set [10] relates to Bacillus subtilis ATCC 6633. Kind of data set: MIC, antibacterial activity on heart infusion agar. It counts as cell-based. The following applies: inoculum 10^6 CFU/ml. The procedure: as §1
Data set [11] has as its system Escherichia coli NIHJ C-2. Kind of data set: MIC, antibacterial activity on heart infusion agar. The format is cell-based. The following applies: inoculum 10^6 CFU/ml. The method, then:
as §1

For another data set, the system named is Micrococcus luteus NIHJ. Kind of data set: MIC, antibacterial activity on heart infusion agar. It counts as cell-based. The following applies: inoculum 10^6 CFU/ml. The method, then:
as §1

In a further data set the test system is yeasts. Kind of data set: Physiological properties: growth inhibition. It counts as cell-based. The following applies: in words.
Another data set deals with gram-positive bacteria. Kind of data set: Physiological properties: growth inhibition. The format is cell-based. The following applies: in words.
A short description of the next data set: Solubility in solvents. The format is physicochemical. As to conditions: measured as the sodium salt.
Data set [12] has as its system protozoa as hog dysentery, coccidium, toxoplasma and trypanosoma. Kind of data set: Physiological properties: growth inhibition. The format is cell-based. As to conditions: in words.
Another data set concerns gram-negative bacteria. Kind of data set: Physiological properties: growth inhibition. The format is cell-based. As to conditions: in words.
Data set [13] in a line: Classification of Nature (basic, acidic or neutral). It counts as physicochemical. As to conditions: measured as the sodium salt.

Take `CC/C=C(\C[C@@]1(C)COC2(CC[C@@](C)([C@H]3C[C@H](O[C@@H]4C[C@@H](O)[C@H](OC)[C@@H](C)O4)[C@@H](C)C4(O[C@@H](C5O[C@@](O)(CO)[C@H](C)C[C@@H]5C)C[C@H]4C)O3)O2)C[C@@H]1O)C(=O)C(C)CC(C)C(=O)[O-].[Na+]` (some centres unmarked) [TM-531 C]: the “improving the feed efficiency” value in data set [1] is “effective”. In data set [2], the “growth inhibition of plant pathogenic microorganisms” value is reported as “inhibits the growth; also recorded: excellent growth inhibitory activity”. For the same compound, the “MIC (minimum inhibition concentration)” value was 12.5 µg/mL in the data set on Bacillus licheniformis; more than 100 µg/mL in data set [3]; 50 µg/mL in data set [4]; 25 µg/mL in data set [5]; 12.5 µg/mL in data set [6]; 25 µg/mL in [7]. Moreover, the “MIC (minimum inhibition concentration)” value was 12.5 µg/mL in [8]; 25 µg/mL in data set [9]; 25 µg/mL in data set [10]; more than 100 µg/mL in [11]; 12.5 µg/mL against Micrococcus luteus NIHJ. In addition, in the data set with yeasts, the activity against yeasts entry was “ineffective”. In addition, in the data set on gram-positive bacteria, the “growth inhibition of gram-positive bacteria” value is “inhibits the growth; also recorded: excellent growth inhibitory activity”. Besides, the “Solubility in organic solvents” value in the data set “Solubility in solvents” (methanol, ethanol, acetone, ethyl acetate, n-hexane, chloroform and benzene) is “soluble”. The Solubility in water result in “Solubility in solvents” (water) is on record as “Insoluble”. Also, in data set [12], the “growth inhibition of protozoa” value is reported as “inhibits the growth; also recorded: excellent growth inhibitory activity”. Further, the “activity against gram-negative bacteria” value with gram-negative bacteria is reported as “ineffective”. Further, the “Classification of Nature (basic, acidic or neutral)” value in data set [13] was “Acidic”.
